Legend:
[1] = system: NMDAR1 receptor; assay: protein expression of NMDAR1 in the liver of NAFLD mice
[2] = system: CCL-2; assay: mRNA expression of CCL2 in HepG2 cells (in vitro NAFLD model); settings: PA:OA mix
[3] = system: TNF-α; assay: mRNA expression of TNF-α in HepG2 cells (in vitro NAFLD model); settings: PA:OA mix
[4] = system: mice fed with standard diet; settings: 0.05 mg/kg daily

Row | SMILES | expression of the NMDAR1 receptor in the liver [1] | mRNA expression of CCL-2 [2] | mRNA expression of TNF-α [3] | signs of hepatic damage (hepatotoxicity) [4]
1 | CN(C)CCc1c[nH]c2cccc(O)c12 [psilocin] | counteracting its overexpression induced by steatosis | reduction in the mRNA expression | reduction in the mRNA expression | 
2 | CN(C)CCc1c[nH]c2cccc(OP(=O)(O)O)c12 [psilocybin] |  |  |  | no signs of hepatic damage were observed

Reference: patent US20240245789A1, “POLYMER CONJUGATES OF DRUGS TARGETING 5-HT AND OTHER RECEPTORS IN THE CENTRAL NERVOUS SYSTEM (CNS) THAT ALSO TARGETS RECEPTORS OUTSIDE OF THE CNS” (Arbormentis LLC, priority 2021, published 2024)
